Like-named read-outs stand apart in the source and are kept apart here.
Legend:
MET1 cells [1] = experiment: Cytotoxicity (resazurin cell viability) in MET1 cells; type: cell-based, human
From the text: (§1) The MET1 SCC cell line (human squamous cell carcinoma) was obtained from Ximbio (London, UK), HaCaT (immortalized human keratinocytes cell line) was obtained from Addexbio (San Diego, CA, USA) and WM983b (human metastatic melanoma cell line) was obtained from Rockland (Pottstown, PA, USA). Cells were maintained in Dulbecco’s Modified Eagle Medium (DMEM) supplemented with 10% (v/v) fetal bovine serum (FBS) for MET1 and HaCaT and 5% (v/v) for WM983b cells, and Pen–Strep (penicillin 100 U/mL and streptomycin 100 µg/mL). Cells were cultivated in an incubator (Sanyo MCO-19AIC-UV) at 37 °C in a 5% CO2 humidified atmosphere.
(§2) First, 96-well plates were seeded with HaCaT and MET1 cells at a density of 20,000 cells/cm² and incubated for 24 h. After that period, the culture medium was replaced by culture medium containing different compounds: MB, AO, GV, QT, CUR, EGCG, PHE, NEO and BIPY. The compounds were diluted in culture medium using a range of concentrations of each compound from 1.25 µM to 320 µM (in quadruplicate). The medium was aspirated from the 96-well plate and replaced by the samples diluted in medium. Cells cultured with complete medium and cells cultured with medium supplemented with 0.2% (v/v) or 10% (v/v) of DMSO were used as negative (NC), solvent (SC) and positive controls (PC), respectively. The plates were incubated for 24 and 48 h, followed by evaluation of cell viability using a colorimetric assay. Cells containing samples were washed with PBS supplemented with calcium and magnesium; then, resazurin solution diluted in DMEM at 0.02 mg/mL was added. The medium containing resazurin was also dispensed in wells without cells, which were used as references. After 3 h of incubation, the absorbance was measured in a microplate reader (ELX800UV, Biotek Instruments) at wavelengths of 570 nm and 600 nm. The corrected absorbance was proportional to cell viability. Propagation of uncertainties was used to calculate the combined standard uncertainty. For the cytotoxicity study using WM983b cells, plates were seeded at a density of 40,000 cells/cm², and cells were treated only with MB and AO.

HaCaT cells = experiment: Cytotoxicity (resazurin cell viability) in HaCaT cells; type: cell-based, human
From the text: as §1, §2

MET1 cells [2] = experiment: Phototoxicity assay in MET1 cells (irradiation 2.5 J/cm², resazurin); type: cell-based, human; settings: for phototoxicity in the investigated range: 1.25-40 µM, irradiated vs dark
Description: The […] SCC cell line (human squamous cell carcinoma) was obtained from Ximbio (London, UK), HaCaT (immortalized human keratinocytes cell line) was obtained from Addexbio (San Diego, CA, USA) and WM983b (human metastatic melanoma cell line) was obtained from Rockland (Pottstown, PA, USA). […] Cells were cultivated in an incubator (Sanyo MCO-19AIC-UV) at 37 °C in a 5% CO2 humidified atmosphere. […] The plates were incubated for 24 h, followed by washing with PBS supplemented with calcium and magnesium. Afterwards, complete culture medium without phenol red was added, and the plates were irradiated from above and submitted to a dose of 2.5 J/cm2 of irradiation emitted by different wavelength light sources coupled with a homemade irradiation system created in our laboratory. […] This experiment was performed in an incubator that was able to keep plates in a dark environment; therefore, the dark control plates were protected from any light source, as well as the others, with the exception of the irradiation that each one was submitted to. Plates were incubated for another 24 h, and finally, the resazurin assay was performed as previously described in Section 3.3. For the phototoxicity study using WM983b cells, plates were prepared at a cell density of 40,000 cells/cm2, and cells were treated with MB and AO only.

WM983b cells [3] = experiment: Cytotoxicity (resazurin cell viability) in WM983b cells; type: cell-based, human; settings: for IC50: Homo sapiens, 1.25-320 µM
From the text: as §1, §2

WM983b cells [4] = experiment: Phototoxicity assay in WM983b cells (irradiation 2.5 J/cm², resazurin); type: cell-based; settings: Homo sapiens, light or radiation study, treated 24 h
From the text: as §1
For the phototoxicity studies, 96-well plates were seeded with MET1 cells at a density of 20,000 cells/cm², incubated overnight and treated for 24 h with MB, AO, GV, QT, CUR, EGCG, PHE, NEO and BIPY diluted in culture medium in a concentration range of 1.25 µM to 40 µM (in sextuplicate). […] Cells cultured with complete medium and cells cultured with medium supplemented with 0.2% (v/v) or 10% (v/v) of DMSO were used as negative (NC), solvent (SC) and positive control (PC), respectively. The plates were incubated for 24 h, followed by washing with PBS supplemented with calcium and magnesium. Afterwards, complete culture medium without phenol red was added, and the plates were irradiated from above and submitted to a dose of 2.5 J/cm² of irradiation emitted by different wavelength light sources coupled with a homemade irradiation system created in our laboratory. These light sources consisted of an equivalent 26 cm UV tubular lamp (254 nm) (Phillips TUV PLS 9W/2PHg) and a tricolor LED lamp (Led Grow Light Bulb E26/E27) with intensity peaks at 457 nm (blue light), 583 nm (yellow light) and 640 nm (red light) provided by 18, 18 and 28 LEDs, respectively, with dimensions of 3 × 3 mm^2. The irradiance values of light at 254, 457, 583 and 640 nm wavelengths were of 16.7, 55, 45 and 25 W/m^2, respectively. This experiment was performed in an incubator that was able to keep plates in a dark environment; therefore, the dark control plates were protected from any light source, as well as the others, with the exception of the irradiation that each one was submitted to. Plates were incubated for another 24 h, and finally, the resazurin assay was performed as previously described in Section 3.3. For the phototoxicity study using WM983b cells, plates were prepared at a cell density of 40,000 cells/cm², and cells were treated with MB and AO only.

[5] = Homo sapiens, MET-1, MET1 cells, 24 h exposure, 1.25-320 µM, read-out: IC50 MET1 Cells 24 h
[6] = Homo sapiens, MET-1, MET1 cells, 48 h exposure, 1.25-320 µM, read-out: IC50 MET1 Cells 48 h
[7] = Homo sapiens, MET-1, MET1 cells, exposure time not given, read-out: IC50 in MET1 cells (summary statement)
[8] = Homo sapiens, HaCaT cells, 24 h exposure, 1.25-320 µM, read-out: IC50 HaCaT Cells 24 h
[9] = Homo sapiens, HaCaT cells, 48 h exposure, 1.25-320 µM, read-out: IC50 HaCaT Cells 48 h
[10] = Homo sapiens, MET-1, light or radiation study, MET1 cells, light condition not stated, read-out: IC50 phototoxicity results (summary statement)
[11] = Homo sapiens, MET-1, light or radiation study, MET1 cells, treated 24 h, 254 nm light, 2.5 J/cm², read-out: IC50 254 nm
[12] = Homo sapiens, MET-1, light or radiation study, MET1 cells, treated 24 h, 457 nm light, 2.5 J/cm², read-out: IC50 457 nm
[13] = Homo sapiens, MET-1, light or radiation study, MET1 cells, treated 24 h, 583 nm light, 2.5 J/cm², read-out: IC50 583 nm
[14] = Homo sapiens, MET-1, light or radiation study, MET1 cells, treated 24 h, 640 nm light, 2.5 J/cm², read-out: IC50 640 nm
[15] = Homo sapiens, MET-1, light or radiation study, MET1 cells, treated 24 h, dark control (no irradiation), read-out: IC50 Dark

Row | Structure (SMILES) | phototoxicity in the investigated range (MET1 cells [2]; MET1 cells) | IC50 (MET1 cells [1]; [5]) [µM] | IC50 (MET1 cells [1]; [6]) [µM] | IC50 (MET1 cells [1]; [7]) [µM] | IC50 (HaCaT cells; [8]) [µM] | IC50 (HaCaT cells; [9]) [µM] | IC50 (MET1 cells [2]; [10]) [µM] | IC50 (MET1 cells [2]; [11]) [µM] | IC50 (MET1 cells [2]; [12]) [µM] | IC50 (MET1 cells [2]; [13]) [µM] | IC50 (MET1 cells [2]; [14]) [µM] | IC50 (MET1 cells [2]; [15]) [µM] | further results
1 | c1ccc(-c2ccccn2)nc1 [2,2′-bipyridyl] | did not show phototoxicity | – | – | – | – | – | – | – | – | – | – | – | IC50 (MET1 cells [1]; Homo sapiens, MET-1, 24 h, read-out: IC50 MET1 Cells 24 h): 275 µM; IC50 (MET1 cells [1]; Homo sapiens, MET-1, 48 h, read-out: IC50 MET1 Cells 48 h): 97.2 µM; IC50 (MET1 cells [1]; Homo sapiens, MET-1, read-out: IC50 in MET1 cells (summary statement)): > 100 µM; IC50 (HaCaT cells; Homo sapiens, HaCaT, 24 h, read-out: IC50 HaCaT Cells 24 h): 125 µM; IC50 (HaCaT cells; Homo sapiens, HaCaT, 48 h, read-out: IC50 HaCaT Cells 48 h): 57.8 µM; IC50 (MET1 cells [2]; Homo sapiens, MET-1, light or radiation study, 24 h, read-out: IC50 254 nm): 225 µM; IC50 (MET1 cells [2]; Homo sapiens, MET-1, light or radiation study, 24 h, read-out: IC50 457 nm): 171 µM; IC50 (MET1 cells [2]; Homo sapiens, MET-1, light or radiation study, 24 h, read-out: IC50 583 nm): 190 µM; IC50 (MET1 cells [2]; Homo sapiens, MET-1, light or radiation study, 24 h, read-out: IC50 640 nm): 202 µM; IC50 (MET1 cells [2]; Homo sapiens, MET-1, light or radiation study, 24 h, read-out: IC50 Dark): 228 µM; IC50 (MET1 cells [2]; Homo sapiens, MET-1, light or radiation study, read-out: IC50 phototoxicity results (summary statement)): > 100 µM
2 | COc1cc(/C=C/C(=O)CC(=O)/C=C/c2ccc(O)c(OC)c2)ccc1O [Curcumin, curcumin] | – | 26 | 7.2 | < 30 | 9 | 11.7 | < 20 | 9.3 | 10.7 | 11.5 | 11 | 15.5 | IC50 (MET1 cells [2]; Homo sapiens, MET-1, light or radiation study, MET1 cells, 640, 583, 457 and 254 nm, 2.5 J/cm², read-out: IC50 values under irradiation (all wavelengths together)): < 11.5 µM
3 | O=c1c(O)c(-c2ccc(O)c(O)c2)oc2cc(O)cc(O)c12 [Quercetin, quercetin] | – | > 320 | 110 | > 100 | > 320 | 315 | > 100 | 205 | 288 | 269 | 340 | 230 | –
4 | c1cnc2c(c1)ccc1cccnc12 [1,10-phenanthroline] | – | 124 | 7.7 | > 100 | 35.2 | 5.9 | – | 6 | 4.9 | 6.8 | 4.8 | 7.4 | –
5 | O=C(O[C@@H]1Cc2c(O)cc(O)cc2O[C@@H]1c1cc(O)c(O)c(O)c1)c1cc(O)c(O)c(O)c1 [Epigallocatechin gallate, epigallocatechin gallate] | no phototoxicity was observed | – | – | – | – | – | – | – | – | – | – | – | IC50 (MET1 cells [1]; MET1 cells, 24 h exposure, 1.25-320 µM, read-out: IC50 MET1 Cells 24 h): 174 µM; IC50 (MET1 cells [1]; MET1 cells, 48 h exposure, 1.25-320 µM, read-out: IC50 MET1 Cells 48 h): 136 µM; IC50 (HaCaT cells; HaCaT cells, 24 h exposure, 1.25-320 µM, read-out: IC50 HaCaT Cells 24 h): 211 µM; IC50 (HaCaT cells; HaCaT cells, 48 h exposure, 1.25-320 µM, read-out: IC50 HaCaT Cells 48 h): 174 µM; IC50 (MET1 cells [2]; MET1 cells, light condition not stated, read-out: IC50 phototoxicity results (summary statement)): > 100 µM; IC50 (MET1 cells [2]; MET1 cells, treated 24 h, 254 nm light, 2.5 J/cm², read-out: IC50 254 nm): 193 µM; IC50 (MET1 cells [2]; MET1 cells, treated 24 h, 457 nm light, 2.5 J/cm², read-out: IC50 457 nm): 222 µM; IC50 (MET1 cells [2]; MET1 cells, treated 24 h, 583 nm light, 2.5 J/cm², read-out: IC50 583 nm): 211 µM; IC50 (MET1 cells [2]; MET1 cells, treated 24 h, 640 nm light, 2.5 J/cm², read-out: IC50 640 nm): 224 µM; IC50 (MET1 cells [2]; MET1 cells, treated 24 h, dark control (no irradiation), read-out: IC50 Dark): 191 µM
6 | CN(C)c1ccc2nc3ccc(=[N+](C)C)cc-3sc2c1 [Methylene blue, methylene blue] | – | 14.2 | 4.2 | – | 11.6 | 7.1 | – | 4.3 | 6.2 | 5 | 3.8 | 10.9 | concentration above which the relative cell population falls below 70% (WM983b cells [3]; 24 or 48 h): above 10 µM; IC50 (WM983b cells [3]; 24 h exposure, read-out: IC50 WM983b cells 24 h): 18 µM; IC50 (WM983b cells [3]; 48 h exposure, read-out: IC50 WM983b cells 48 h): 6.1 µM; IC50 (WM983b cells [4]; 640 nm light, 2.5 J/cm², read-out: IC50 irradiated samples (640 nm)): 2.1 µM; IC50 (WM983b cells [4]; without irradiation, read-out: IC50 non-irradiated samples): 7.3 µM

Source: paper PMC10054552, “Phototoxic Potential of Different DNA Intercalators for Skin Cancer Therapy: In Vitro Screening” (International Journal of Molecular Sciences, 2023)
